Assay results: patent US20030022864A1, “9-[(5-dihydroxyboryl)-pentyl] purines, useful as an inhibitor of inflammatory cytokines” (priority 2001, published 2003)
pIC50: −log10 of the molar value.

How the values were obtained:
[1] = system: rats with permanent occlusion of the middle cerebral artery; details: systemic administration, 10 mg/kg 1 hour post ischemia; compared with vehicle controls; cited from earlier work
[2] = system: TNF-α production by human monocytes; test: Assay for inhibition of TNF-α production by human monocytes; assay type: cell-based; details: 100 ng/ml LPS, 16 hours, ELISA, read-out: IC50 Against TNF-α
Protocol: Assay for inhibition of TNF-α production by human monocytes
Monocytes were prepared by centrifugal counterflow elutriation from PBMC obtained from leukophoresis of normal volunteers (leukopaks) at the Phoresis laboratory located at Duke University Hospital, Durham, N.C., United States of America. PBMC from leukopaks were diluted in sterile isotonic saline/10 mM HEPES (N-[2-Hydroxyethyl]piperazine-N′-[2-ethanesulfonic acid]), the name of a buffer used in biological and protein chemistry) and placed into 50 ml conical polypropylene tubes in 30 ml aliquots. Each aliquot of diluted PBMC is underlaid with 20-25 ml of sterile lymphocyte separation medium (LSM; Organon-Technika, Durham, N.C., United States of America). The tubes were centrifuged at 400× gravity for 40 minutes at room temperature. The mononuclear cells at the interface were resuspended in phosphate buffered saline (PBS) and then separated, using a Beckman elutriator, into lymphocytes and monocytes. Yields of 10^9 monocytes with greater than 90% purity were routinely obtained.
Purified monocytes prepared as described above were suspended at 4×10^6 cells/ml in complete medium. Complete medium is defined as follows: RPMI-1640 supplemented with 100 U/ml penicillin; 100 μg/ml streptomycin; 2 mM L-glutamine; 1 mM Na pyruvate; 1% MEM non-essential amino acids; 25 mM HEPES (all from GIBCO, Gaithersburg, Md., United States of America); and 5% pooled, heat-inactivated (56° C., 30 minutes) human serum from type AB blood (Pel-Freez, Brown Deer, Wis., United States of America). To each well of a 48-well flat bottomed tissue culture plate was added 0.125 ml of cell suspension. Test materials (diluted in complete medium at 2× the desired final concentration) were added in […] to each well. Control wells received 250 μl of complete medium. All samples were tested at a minimum of 4 concentrations in the presence or absence of 100 ng/ml LPS (S. typhosa; Sigma, St. Louis, Mo., United States of America; 125 μl of 4× desired final concentration added) and incubated at 37° C. in humidified 5% CO2 for 16 hours. At this time, culture supernatants were aspirated off and the unattached cells and cell debris removed by a 2 minute spin in a microcentrifuge at 10,000× gravity. The release of TNF-α was determined in the cell-free supernatants using an ELISA capture assay.

[3] = system: nitric oxide production by murine macrophage cell line J774.1; test: Nitric oxide production by a murine macrophage cell line (J774.1), nitrate/nitrite by Griess reagent; assay type: cell-based; details: FIG. 2
Protocol: (§1) Assay for inhibition of TNF-α or nitric oxide (NO) by a murine macrophage cell line
(§2) Murine macrophage cell line J774.1 cells were maintained by culture at 37° C. in 5% humidified CO2 in media that was […] (DMEM) supplemented with 100 U/ml penicillin; 100 μg/ml streptomycin; 2 mM L-glutamine; 1 mM Na pyruvate; 1% MEM non-essential amino acids; 25 mM HEPES (all from GIBCO, Gaithersburg, Md., United States of America); and 10% pooled, heat-inactivated (56° C., 30 minutes) fetal bovine serum (FBS; GIBCO). For assays of TNF-α and nitric oxide production, cells were cultured at 1×10^5 cells/well in 96-well tissue culture plates. Test compound was prepared as a stock solution in DMSO and added to each well to give the desired final concentration. DMSO was added to control wells to serve as a vehicle control. Each concentration of test material or vehicle control was tested in replicates of 4 wells. After a 1 hour exposure to test material, a stimulus (either SAK2 stimulatory oligonucleotide [10 μg] or LPS [10 ng/ml]+IFNγ[100 u/ml]) was added to each well, and the plates incubated for 48 hours at 37° C. in 5% humidified CO2. […] Content of nitrite/nitrate in J774.1 cell culture supernatants was expressed as μM.

[4] = system: mRNA for GAPDH; test: Housekeeping gene mRNA in normal human PBMC by RT-PCR: GAPDH; assay type: cell-based; details: FIG. 6
Protocol: (§3) The ability of LMP-420 to affect the expression of C-C chemokine receptors on normal human PBMC was tested as illustrated in FIG. 6. […] There was no effect on CCR4, the only other C-C chemokine receptor whose mRNA could be detected in these unstimulated human PBMC. Also, there was no effect on the mRNA for GAPDH which is used as a “housekeeping gene” to verify that equal amounts of mRNA are being reversed transcribed for the analysis. Thus, the ability of LMP-420 to inhibit the expression of CCR1 might contribute to antiinflammatory properties of LMP-420, as well as its ability to inhibit HIV-1 replication.

[5] = system: CCR4 mRNA; test: Expression of C-C chemokine receptor mRNA in normal human PBMC by RT-PCR: CCR4; assay type: cell-based; details: unstimulated human PBMC, FIG. 6
Protocol: as §3

[6] = system: TNF-α production by murine macrophage cell line J774.1; test: Inhibition of TNF-α production by a murine macrophage cell line (J774.1); assay type: cell-based; details: FIG. 1; read-out: IC50, production of TNF-α by cultured murine macrophage cell line
Protocol: as §1, §2

[7] = system: mRNA encoding for CCR1; test: Expression of C-C chemokine receptor mRNA in normal human PBMC by RT-PCR: CCR1; assay type: cell-based; details: FIG. 6
Protocol: as §3

[8] = 400 mg 3 times daily, 6 months; placebo 26.8%, p=0.04; cited from earlier work
[9] = cited from earlier work
[10] = target: T1, biologically-active TNF-α (Homo sapiens, UniProt P01375); details: heart failure patients; cited from earlier work
T1 construct: host or cells: serum of heart-failure patients

[11] = two weeks after a single infusion; cited from earlier work

T1 sequence (P01375 77-233 limits assumed): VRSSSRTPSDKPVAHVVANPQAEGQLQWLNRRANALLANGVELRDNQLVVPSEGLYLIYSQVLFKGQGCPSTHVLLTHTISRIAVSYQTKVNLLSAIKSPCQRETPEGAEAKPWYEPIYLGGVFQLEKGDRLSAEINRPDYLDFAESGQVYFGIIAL

C/C(=N\N=C(N)N)c1cc(NC(=O)CCCCCCCCC(=O)Nc2cc(/C(C)=N/N=C(N)N)cc(/C(C)=N/N=C(N)N)c2)cc(/C(C)=N/N=C(N)N)c1.Cl.Cl.Cl.Cl [CNI-1493]
reduced infarct volume [1]: 80%

Nc1nc(Cl)c2ncn(CCCCO)c2n1 [Comparison Compound 6]
pIC50 [2]: < 4.30

Nc1nc(Cl)c2ncn(CCCC(=O)O)c2n1 [Comparison Compound 13]
pIC50 [2]: < 4.70

CCOC(=O)CCCn1cnc2c(Cl)nc(N)nc21 [Comparison Compound 14]
pIC50 [2]: < 4.70

Nc1nc(Cl)c2ncn(CCCCCB(O)O)c2n1 [LMP-420, 2-amino-6-chloro-9-[(5-dihydroxyboryl)-pentyl] purine]
pIC50 [2]: 7.10
effect on the production of nitric oxide as measured by the release of nitrate or nitrite [3]: no effect
effect on the mRNA for GAPDH [4]: no effect
effect on CCR4 mRNA [5]: no effect
pIC50 [6]: ~6.00
expression of mRNA encoding for CCR1 [7]: dose-dependent inhibition

CC(=O)CCCCn1c(=O)c2c(ncn2C)n(C)c1=O [Pentoxifylline]
left ventricular ejection fraction (LVEF) [8]: 38.7%

ENBREL
patients who achieved the ARC20 ([9]; 12 weeks, placebo 13%): 73%
patients who met the PsARC ([9]; 12 weeks, placebo 23%): 87%
patients who achieved a 75% improvement in the PASI ([9]; 19 assessable patients per group, placebo 0, p=0.015): 26%
median target lesions (improvement) ([9]; placebo 0%): 50%
median PASI improvement ([9]; placebo 9%): 46%
decrease in serum levels of biologically-active TNF-α [10]: 85%

REMICADE: humanized murine monoclonal antibody to TNF-α
patient's psoriasis [11]: dramatically cleared up
